# According to patent publication US7704982B2, “2-methylene-19-nor-1α-hydroxy-17-ene-homopregnacalciferol and its uses” (Wisconsin Alumni Research Foundation, priority 2004, dated 2010):
# Key:
# [1] = Bone calcium mobilization (serum calcium) in vitamin D-deficient rats; assay type: in vivo, Sprague-Dawley rats; settings: 0.02% Ca diet
# Description: (§1) Male, weanling Sprague-Dawley rats were placed on Diet 11 (0.47% Ca)+AEK for one week followed by Diet 11 (0.02% Ca)+AEK for 3 weeks. The rats were then switched to the same diet containing 0.47% Ca for one week followed by two weeks on the same diet containing 0.02% Ca. Dose administration began during the last week on 0.02% calcium diet. Four consecutive ip doses were given approximately 24 hours apart. Twenty-four hours after the last dose, blood was collected from the severed neck and the concentration of serum calcium determined by atomic absorption spectrometry as a measure of bone calcium mobilization. The first 10 cm of the intestine was also collected for intestinal calcium transport analysis using the everted gut sac method.
# [2] = tested on: 24-hydroxylase (24Ohase) gene promoter; experiment: In vitro transcription assay (luciferase reporter) in ROS 17/2.8 (bone) cells; assay type: cell-based; settings: ROS 17/2.8 cells, 24Ohase promoter-luciferase, 16 h; FIG. 3; read-out: EC50, transcriptional activity in bone cells
# Description: Transcription activity was measured in ROS 17/2.8 (bone) cells that were stably transfected with a 24-hydroxylase (24Ohase) gene promoter upstream of a luciferase reporter gene (Arbour et al., 1998). Cells were given a range of doses. Sixteen hours after dosing the cells were harvested and luciferase activities were measured using a luminometer.
# RLU=relative luciferase units.
# [3] = tested on: Human promyelocytic leukemia (HL60) cells; experiment: HL-60 cell differentiation (nitro blue tetrazolium reduction); assay type: cell-based; settings: 4 days, FIG. 2
# Description: The study drugs were dissolved in ethanol and the concentrations determined using UV spectrophotometry. Serial dilutions were prepared so that a range of drug concentrations could be tested without changing the final concentration of ethanol (≦0.2%) present in the cell cultures.
# Human promyelocytic leukemia (HL60) cells were grown in RPMI-1640 medium containing 10% fetal bovine serum. The cells were incubated at 37° C. in the presence of 5% CO2.
# HL60 cells were plated at 1.2×10^5 cells/ml. Eighteen hours after plating, cells in duplicate were treated with drug. Four days later, the cells were harvested and a nitro blue tetrazolium reduction assay was performed (Collins et al., 1979; J. Exp. Med. 149:969-974). The percentage of differentiated cells was determined by counting a total of 200 cells and recording the number that contained intracellular black-blue formazan deposits. Verification of differentiation to monocytic cells was determined by measuring phagocytic activity (data not shown).
# [4] = Intestinal calcium transport, everted gut sac method, in vitamin D-deficient rats; assay type: in vivo, Sprague-Dawley rats; settings: FIG. 6
# Description: as §1
# [5] = target: T1, full-length recombinant rat vitamin D receptor (Rattus norvegicus, UniProt P13053); experiment: Vitamin D receptor competitive binding with [3H]-1,25(OH)2D3; settings: full-length recombinant rat VDR; FIG. 1; read-out: Ki, competition with [3H]-1,25(OH)2D3 for binding to the vitamin D receptor
# T1 construct: Full-length recombinant rat receptor was expressed in E. coli; histidine tag (C); made in house; host or cells: E. coli BL21 (DE3) Codon Plus RIL
# T1 sequence (P13053 1-423): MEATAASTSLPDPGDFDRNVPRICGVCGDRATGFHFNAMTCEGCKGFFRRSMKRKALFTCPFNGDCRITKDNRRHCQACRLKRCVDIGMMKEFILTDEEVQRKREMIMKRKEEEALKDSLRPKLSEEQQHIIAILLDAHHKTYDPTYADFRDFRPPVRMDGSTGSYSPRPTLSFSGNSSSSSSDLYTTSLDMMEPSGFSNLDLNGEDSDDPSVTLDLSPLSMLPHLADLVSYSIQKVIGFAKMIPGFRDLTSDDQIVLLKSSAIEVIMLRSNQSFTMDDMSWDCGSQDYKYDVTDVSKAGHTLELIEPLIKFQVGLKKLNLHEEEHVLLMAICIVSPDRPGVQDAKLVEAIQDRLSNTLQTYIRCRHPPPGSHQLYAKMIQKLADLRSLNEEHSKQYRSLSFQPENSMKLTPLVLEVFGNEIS
# Description: Full-length recombinant rat receptor was expressed in E. coli BL21 (DE3) Codon Plus RIL cells and purified to homogeneity using two different column chromatography systems. The first system was a nickel affinity resin that utilizes the C-terminal histidine tag on this protein. The protein that was eluted from this resin was further purified using ion exchange chromatography (S-Sepharose Fast Flow). Aliquots of the purified protein were quick frozen in liquid nitrogen and stored at −80° C. until use. For use in binding assays, the protein was diluted in TEDK50 (50 mM Tris, 1.5 mM EDTA, pH7.4, 5 mM DTT, 150 mM KCl) with 0.1% Chaps detergent. The receptor protein and ligand concentration were optimized such that no more than 20% of the added radiolabeled ligand was bound to the receptor.
# Radiolabeled and unlabeled ligands were added to 100 mcl of the diluted protein at a final ethanol concentration of ≦10%, mixed and incubated overnight on ice to reach binding equilibrium. The following day, 100 mcl of hydroxylapatite slurry (50%) was added to each tube and mixed at 10-minute intervals for 30 minutes. The hydroxylapaptite was collected by centrifugation and then washed three times with Tris-EDTA buffer (50 mM Tris, 1.5 mM EDTA, pH 7.4) containing 0.5% Titron X-100. […] Total binding was determined from the tubes containing only radiolabeled ligand.
SMILES,serum calcium levels (bone calcium mobilization) ([1]; all dosages tested (FIG. 4)),EC50 [2] [nM],EC50 [3] [nM],intestinal calcium transport ([4]; 780 pmol/day ip for 4 days),mobilization of bone calcium (serum calcium) ([1]; 780 pmol/day ip for 4 consecutive days),mobilization of bone calcium (serum calcium) ([1]; 2340 pmol/day ip for 4 consecutive days),mobilization of bone calcium (serum calcium) ([1]; 7020 pmol/day ip for 4 consecutive days),Ki [5] [nM],"EC50 ([3]; Homo sapiens, HL-60, 96 h) [nM]",intestinal calcium transport ([4]; 2340 pmol/day ip for 4 days),intestinal calcium transport ([4]; 7020 pmol/day ip for 4 days)
"C=C1/C(=C\C=C2/CCC[C@]3(C)[C@@H]([C@H](C)CCCC(C)(C)O)CC[C@@H]23)C[C@@H](O)C[C@@H]1O [1,25(OH)2D3, 1α,25-dihydroxyvitamin D3, reference compound]",increased serum calcium levels,0.22,6.2,promotes a significant increase,,,,,,,
"C=C1[C@H](O)CC(=C/C=C2\CCC[C@]3(C)C(=C(C)C)CCC23)C[C@H]1O (stereo partly drawn) [VIT-I, 2-methylene-19-nor-1α-hydroxy-17-ene-homopregnacalciferol]",,6,,does not promote intestinal calcium transport,did not result in mobilization of bone calcium,without any substantial effect,without any substantial effect,0.19,13,does not promote intestinal calcium transport,does not promote intestinal calcium transport
